Measured values from ChEMBL document CHEMBL1201862, “PubChem BioAssay data set” (2004).
The source made the active and inactive calls.

How the values were obtained:
[1] = molecular target: T1, Apoptotic protease-activating factor 1 (Homo sapiens, UniProt O14727); type: functional
T1 sequence (O14727 whole entry): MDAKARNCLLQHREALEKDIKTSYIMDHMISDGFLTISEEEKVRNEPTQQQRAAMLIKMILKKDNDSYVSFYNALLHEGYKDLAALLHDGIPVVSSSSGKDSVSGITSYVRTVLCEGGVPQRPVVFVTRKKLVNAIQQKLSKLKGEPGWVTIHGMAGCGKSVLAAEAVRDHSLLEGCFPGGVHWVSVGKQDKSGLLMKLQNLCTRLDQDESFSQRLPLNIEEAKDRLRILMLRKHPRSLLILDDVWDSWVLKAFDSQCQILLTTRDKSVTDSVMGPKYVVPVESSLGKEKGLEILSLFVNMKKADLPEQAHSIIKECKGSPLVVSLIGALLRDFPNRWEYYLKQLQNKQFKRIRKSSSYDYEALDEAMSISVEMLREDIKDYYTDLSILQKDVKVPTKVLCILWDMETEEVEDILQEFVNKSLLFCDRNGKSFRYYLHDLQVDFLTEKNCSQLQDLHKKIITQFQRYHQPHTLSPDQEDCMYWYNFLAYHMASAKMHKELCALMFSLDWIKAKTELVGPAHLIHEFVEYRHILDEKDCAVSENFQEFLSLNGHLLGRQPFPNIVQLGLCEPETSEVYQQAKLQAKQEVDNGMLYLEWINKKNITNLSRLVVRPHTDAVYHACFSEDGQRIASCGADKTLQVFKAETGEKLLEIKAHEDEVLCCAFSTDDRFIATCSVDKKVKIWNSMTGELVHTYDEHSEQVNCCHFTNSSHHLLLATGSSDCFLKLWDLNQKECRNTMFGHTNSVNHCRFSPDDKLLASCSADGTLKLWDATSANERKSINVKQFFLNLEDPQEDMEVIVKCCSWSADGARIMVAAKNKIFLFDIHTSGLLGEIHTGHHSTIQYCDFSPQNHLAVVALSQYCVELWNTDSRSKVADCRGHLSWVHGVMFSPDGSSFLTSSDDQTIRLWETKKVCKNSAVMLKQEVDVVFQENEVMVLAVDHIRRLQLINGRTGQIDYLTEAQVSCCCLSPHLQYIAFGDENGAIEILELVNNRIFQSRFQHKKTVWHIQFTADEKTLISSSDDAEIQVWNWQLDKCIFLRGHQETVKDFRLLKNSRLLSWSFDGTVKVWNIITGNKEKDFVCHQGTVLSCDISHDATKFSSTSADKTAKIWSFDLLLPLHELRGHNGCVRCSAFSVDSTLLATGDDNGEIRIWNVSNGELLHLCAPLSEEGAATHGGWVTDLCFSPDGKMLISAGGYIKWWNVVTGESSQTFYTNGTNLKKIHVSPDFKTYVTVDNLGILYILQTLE

[2] = molecular target: Caspase-7 (Homo sapiens, UniProt P55210); assay: human caspase-7 inhibitors, dose response, selectivity assay for caspase-6 inhibitor project, biochemical, DEVD-R110 fluorescence, cherry-pick (AID 743295)
Sequence of Caspase-7 (P55210 24-198 limits assumed): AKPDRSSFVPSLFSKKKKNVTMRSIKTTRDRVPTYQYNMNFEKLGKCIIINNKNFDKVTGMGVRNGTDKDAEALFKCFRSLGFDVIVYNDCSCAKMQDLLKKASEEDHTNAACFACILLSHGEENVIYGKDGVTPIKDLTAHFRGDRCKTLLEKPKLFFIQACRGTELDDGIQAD
Sequence of Caspase-7 (P55210 207-303 limits assumed): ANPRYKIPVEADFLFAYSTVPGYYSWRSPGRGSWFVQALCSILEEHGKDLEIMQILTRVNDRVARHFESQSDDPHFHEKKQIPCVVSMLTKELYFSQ

[3] = molecular target: T2, Mannose-6-phosphate isomerase (Homo sapiens, UniProt P34949); assay: human PMI inhibitors, high substrate, primary screen, biochemical, fluorescence intensity, high mannose 6-phosphate (AID 1220)
T2 sequence (P34949 whole entry): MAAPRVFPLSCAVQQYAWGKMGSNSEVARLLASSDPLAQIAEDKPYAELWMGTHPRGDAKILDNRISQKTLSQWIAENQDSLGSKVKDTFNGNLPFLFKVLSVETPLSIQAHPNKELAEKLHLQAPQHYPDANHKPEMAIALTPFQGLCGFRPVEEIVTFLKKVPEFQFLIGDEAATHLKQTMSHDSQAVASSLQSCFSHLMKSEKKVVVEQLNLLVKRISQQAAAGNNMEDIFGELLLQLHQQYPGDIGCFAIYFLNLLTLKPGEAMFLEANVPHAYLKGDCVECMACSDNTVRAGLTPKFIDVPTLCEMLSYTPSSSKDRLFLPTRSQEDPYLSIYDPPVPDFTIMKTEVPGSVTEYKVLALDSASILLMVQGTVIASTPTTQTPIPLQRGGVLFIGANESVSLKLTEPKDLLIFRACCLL

[4] = molecular target: T3, Caspase-6 (Homo sapiens, UniProt P55212); assay: human caspase-6 inhibitors, dose response, biochemical, VEID-R110 fluorescence, cherry-pick (AID 720632)
T3 sequence (P55212 whole entry): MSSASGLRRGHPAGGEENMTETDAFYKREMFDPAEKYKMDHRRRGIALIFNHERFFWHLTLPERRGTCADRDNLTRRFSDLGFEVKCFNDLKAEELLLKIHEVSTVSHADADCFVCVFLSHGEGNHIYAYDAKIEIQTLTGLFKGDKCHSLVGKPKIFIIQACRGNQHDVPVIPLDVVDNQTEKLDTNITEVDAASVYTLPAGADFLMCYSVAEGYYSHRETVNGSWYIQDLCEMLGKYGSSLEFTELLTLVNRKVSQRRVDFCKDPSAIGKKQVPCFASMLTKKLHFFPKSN

[5] = molecular target: Caspase-8 (Homo sapiens, UniProt Q14790); assay: caspase-8 inhibition counter-screen, dose response, selectivity assay for caspase-6 inhibitor project, biochemical, Z-IETD-R110 fluorescence, cherry-picked samples (AID 743294)
Sequence of Caspase-8 (Q14790 217-374 limits assumed): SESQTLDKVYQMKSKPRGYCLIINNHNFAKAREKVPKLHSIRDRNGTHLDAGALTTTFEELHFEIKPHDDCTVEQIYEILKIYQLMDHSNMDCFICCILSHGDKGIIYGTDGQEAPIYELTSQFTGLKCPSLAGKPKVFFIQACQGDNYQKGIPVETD
Sequence of Caspase-8 (Q14790 385-479 limits assumed): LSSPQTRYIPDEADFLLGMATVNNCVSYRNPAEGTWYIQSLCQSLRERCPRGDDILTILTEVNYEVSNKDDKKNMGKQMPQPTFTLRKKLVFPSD

[6] = molecular target: Caspase-9 (Homo sapiens, UniProt P55211); assay: caspase-9 enzyme inhibition, dose response, selectivity assay for caspase-6 inhibitor project, biochemical, fluorescence, plate reader, cherry-picked samples (AID 743293)
Sequence of Caspase-9 (P55211 1-315 limits assumed): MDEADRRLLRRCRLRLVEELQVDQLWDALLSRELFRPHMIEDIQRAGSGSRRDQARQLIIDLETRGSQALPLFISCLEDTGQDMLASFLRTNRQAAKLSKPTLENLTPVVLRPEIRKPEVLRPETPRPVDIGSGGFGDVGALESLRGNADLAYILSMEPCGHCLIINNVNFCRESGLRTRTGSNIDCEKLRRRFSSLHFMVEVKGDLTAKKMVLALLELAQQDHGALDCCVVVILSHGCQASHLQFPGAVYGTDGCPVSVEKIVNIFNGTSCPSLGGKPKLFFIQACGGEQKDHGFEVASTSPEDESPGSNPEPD
Sequence of Caspase-9 (P55211 331-416 limits assumed): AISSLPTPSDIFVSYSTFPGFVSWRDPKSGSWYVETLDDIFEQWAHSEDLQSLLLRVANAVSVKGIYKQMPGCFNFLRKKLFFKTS

[7] = cells; details: HEK293
[8] = molecular target: Metabotropic glutamate receptor 7 (Homo sapiens, UniProt Q14831); assay: mGlu7 positive allosteric modulators, dose response, cell-based, calcium mobilization, Galpha15 (AID 743384); type: functional
Sequence of Metabotropic glutamate receptor 7 (Q14831 whole entry): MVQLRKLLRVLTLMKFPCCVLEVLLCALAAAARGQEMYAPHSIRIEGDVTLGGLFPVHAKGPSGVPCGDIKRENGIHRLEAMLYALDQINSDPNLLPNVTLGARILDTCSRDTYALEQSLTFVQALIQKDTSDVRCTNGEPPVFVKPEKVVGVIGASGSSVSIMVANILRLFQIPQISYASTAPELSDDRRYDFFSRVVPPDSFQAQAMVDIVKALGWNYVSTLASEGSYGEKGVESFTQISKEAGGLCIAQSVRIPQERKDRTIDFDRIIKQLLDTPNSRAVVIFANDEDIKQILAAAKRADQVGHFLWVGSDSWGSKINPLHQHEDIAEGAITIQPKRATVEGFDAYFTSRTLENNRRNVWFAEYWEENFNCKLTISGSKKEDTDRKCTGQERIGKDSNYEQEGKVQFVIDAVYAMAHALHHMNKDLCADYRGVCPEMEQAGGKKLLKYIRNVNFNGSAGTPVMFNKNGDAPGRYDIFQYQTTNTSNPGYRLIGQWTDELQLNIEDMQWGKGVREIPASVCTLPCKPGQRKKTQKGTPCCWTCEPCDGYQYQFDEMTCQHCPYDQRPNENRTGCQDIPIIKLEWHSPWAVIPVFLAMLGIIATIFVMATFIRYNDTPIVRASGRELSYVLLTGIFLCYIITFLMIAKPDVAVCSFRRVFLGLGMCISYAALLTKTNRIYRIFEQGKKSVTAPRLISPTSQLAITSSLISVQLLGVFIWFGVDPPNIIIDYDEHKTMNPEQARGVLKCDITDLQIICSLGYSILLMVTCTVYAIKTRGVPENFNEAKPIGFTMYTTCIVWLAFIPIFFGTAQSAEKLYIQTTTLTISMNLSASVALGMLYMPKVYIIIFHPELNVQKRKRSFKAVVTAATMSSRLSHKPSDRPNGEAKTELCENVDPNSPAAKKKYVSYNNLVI

[9] = HeLa 2N DNA content increase, dose response, cell-based, IC50 (AID 1117349); type: functional
[10] = HeLa 4N DNA content increase, dose response, cell-based, IC50 (AID 1117351); type: functional
[11] = MITF: Counter assay: A375 proliferation Measured in Cell-Based System Using Plate Reader - 2084-03_Inhibitor_Dose_DryPowder_Activity_Set8.; type: functional; details: A-375
[12] = MITF Orthogonal Assay: MALME3 CTG Assay Measured in Cell-Based System Using Plate Reader - 2084-04_Inhibitor_Dose_DryPowder_Activity_Set6.; type: functional; details: MALME-3
[13] = TRPM1 promoter luciferase reporter signal decrease, dose response, MITF inhibitor project, cell-based, SK-MEL-5, dry powder, set 9 (AID 651588); type: functional
[14] = SK-MEL-5 parental cell viability reduction, dose response, orthogonal assay for MITF inhibitor project, CellTiter-Glo luminescence, dry powder, set 8 (AID 651586); type: functional, cell-based
[15] = MALME3 melanoma cell viability reduction, dose response, orthogonal assay for MITF inhibitor project, CellTiter-Glo luminescence, dry powder, set 5 (AID 651584); type: functional, cell-based; details: MALME-3
[16] = A375 melanoma cell viability loss, dose response, counter-screen for MITF modulator project, CellTiter-Glo luminescence, dry powder, set 9 (AID 651591); type: functional, cell-based; details: A-375
[17] = TRPM1 promoter luciferase reporter signal decrease, dose response, MITF inhibitor project, cell-based, SK-MEL-5, dry powder, set 8 (AID 624430); type: functional
[18] = MITF Orthogonal Assay: SK-MEL-5 CTG Assay Measured in Cell-Based System Using Plate Reader - 2084-02_Inhibitor_Dose_DryPowder_Activity_Set7.; type: functional

CCOc1c(O)ccc(/C=C2\SC(=S)NC2=O)c1[N+](=O)[O-]
IC50 [1]: 15.8 µM (active) | AC50 [2]: 25.5 µM (active) | IC50 [3]: > 50 µM (not active) | AC50 [4]: 4.1 µM (active) | AC50 [5]: > 70 µM (inactive) | AC50 [6]: 53.6 µM (active)

COc1cc(C)ccc1OCCn1cnc2ccccc21
AC50 [7]: > 52 µM (inactive)

CC(=O)Nc1ccc(SCC(=O)c2cc(C)n(-c3ccc(S(N)(=O)=O)cc3)c2C)cc1
EC50 [8]: 10 µM (active)

CC(C)(C)C(=O)OCOP(=O)(COCCn1cnc2c(N)ncnc21)OCOC(=O)C(C)(C)C [ADEFOVIR DIPIVOXIL]
IC50 [9]: > 10 µM (inactive) | IC50 [10]: > 10 µM (inactive)

O=C1C(Nc2cccc(Cl)c2)=C(N2CCCC2)C(=O)c2ccccc21
AC50 [11]: > 70 µM (inactive) | AC50 [12]: > 70 µM (inactive) | AC50 [13]: 46.8 µM (active) | AC50 [14]: > 70 µM (inactive) | AC50 [15]: > 70 µM (inactive) | AC50 [16]: > 70 µM (inactive) | AC50 [17]: 8.39 µM (active) | AC50 [18]: 5.52 µM (active)
